Laboratory results as given in PubChem BioAssay AID2060510 (Molecular Pharmacology Branch, DTP, NCI, 2025).

System: 439559-082-T-J2-PDC spheroids viability
Test: Anticancer human tumor 439559-082-T-J2-PDC patient-derived colon adenocarcinoma cell line growth inhibition [GQUAD]
Settings: for IC50: curve of first compound; for viability, T/C: stronger effect = lower value
Outline: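 Multi-cell-type spheroids of tumor cells with HUVEC and mesenchymal stem cells, treated with drug combinations. Concentrations descend in half-log steps from near clinical Cmax, or from 10 microM where Cmax is unknown; viability read-out.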

[1] = second compound 0.0316 µM, first compound 0.0316 µM
[2] = second compound 0.0316 µM, first compound 0.1 µM
[3] = second compound 0.0316 µM, first compound 0.316 µM
[4] = second compound 0.0316 µM, first compound 1 µM
[5] = second compound 0.0316 µM, first compound 3.16 µM
[6] = second compound 0.0316 µM, first compound 10 µM
[7] = second compound 0.1 µM, first compound 0.0316 µM
[8] = second compound 0.1 µM, first compound 0.1 µM
[9] = second compound 0.1 µM, first compound 0.316 µM
[10] = second compound 0.1 µM, first compound 1 µM
[11] = second compound 0.1 µM, first compound 3.16 µM
[12] = second compound 0.1 µM, first compound 10 µM
[13] = second compound 0.316 µM, first compound 0.0316 µM
[14] = second compound 0.316 µM, first compound 0.1 µM
[15] = second compound 0.316 µM, first compound 0.316 µM
[16] = second compound 0.316 µM, first compound 1 µM
[17] = second compound 0.316 µM, first compound 3.16 µM
[18] = second compound 0.316 µM, first compound 10 µM
[19] = second compound 1 µM, first compound 0.0316 µM
[20] = second compound 1 µM, first compound 0.1 µM
[21] = second compound 1 µM, first compound 0.316 µM
[22] = second compound 1 µM, first compound 1 µM
[23] = second compound 1 µM, first compound 3.16 µM
[24] = second compound 1 µM, first compound 10 µM
[25] = second compound 3.16 µM, first compound 0.0316 µM
[26] = second compound 3.16 µM, first compound 0.1 µM
[27] = second compound 3.16 µM, first compound 0.316 µM
[28] = second compound 3.16 µM, first compound 1 µM
[29] = second compound 3.16 µM, first compound 3.16 µM
[30] = second compound 3.16 µM, first compound 10 µM
[31] = second compound 10 µM, first compound 0.0316 µM
[32] = second compound 10 µM, first compound 0.1 µM
[33] = second compound 10 µM, first compound 0.316 µM
[34] = second compound 10 µM, first compound 1 µM
[35] = second compound 10 µM, first compound 3.16 µM
[36] = second compound 10 µM, first compound 10 µM
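Note: spheroids exposed to the agents for 7 days before readout.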
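Throughout, for viability, T/C: percent of luminescence signal in DMSO vehicle wells taken as 100% viability.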

C=CCn1c(=O)c2cnc(Nc3ccc(N4CCN(C)CC4)cc3)nc2n1-c1cccc(C(C)(C)O)n1 + Cc1cnc(CNC(=O)c2c(=O)c3ccc(N4CCCN(C)CC4)nc3n3c2sc2ccccc23)cn1
IC50 (second compound 0.0316 µM): 2610 nM | IC50 (second compound 0.1 µM): 2530 nM | IC50 (second compound 0.316 µM): 1740 nM | IC50 (second compound 1 µM): 1400 nM | IC50 (second compound 3.16 µM): 1280 nM | IC50 (second compound 10 µM): 1080 nM | viability, T/C [1]: 95.4% | viability, T/C [2]: 93.7% | viability, T/C [3]: 88.8% | viability, T/C [4]: 83.7% | viability, T/C [5]: 43.2% | viability, T/C [6]: 25.4% | viability, T/C [7]: 104% | viability, T/C [8]: 83.6% | viability, T/C [9]: 91.4% | viability, T/C [10]: 76% | viability, T/C [11]: 43.1% | viability, T/C [12]: 22.2% | viability, T/C [13]: 84.6% | viability, T/C [14]: 87.5% | viability, T/C [15]: 73.5% | viability, T/C [16]: 66.3% | viability, T/C [17]: 33.8% | viability, T/C [18]: 24% | viability, T/C [19]: 83.2% | viability, T/C [20]: 87.9% | viability, T/C [21]: 72.1% | viability, T/C [22]: 61.8% | viability, T/C [23]: 27.3% | viability, T/C [24]: 20.2% | viability, T/C [25]: 73.3% | viability, T/C [26]: 63.6% | viability, T/C [27]: 68.3% | viability, T/C [28]: 56.8% | viability, T/C [29]: 25.1% | viability, T/C [30]: 18.5% | viability, T/C [31]: 66.2% | viability, T/C [32]: 53.9% | viability, T/C [33]: 61.2% | viability, T/C [34]: 51.1% | viability, T/C [35]: 31.2% | viability, T/C [36]: 13.8%

CC(C)(O)C1CCC(Nc2ccc3ncc(-c4cccc(C(F)(F)F)c4)n3n2)CC1 (stereo not drawn) + Cc1cnc(CNC(=O)c2c(=O)c3ccc(N4CCCN(C)CC4)nc3n3c2sc2ccccc23)cn1
IC50 (second compound 0.0316 µM): 1680 nM | IC50 (second compound 0.1 µM): 1760 nM | IC50 (second compound 0.316 µM): 1460 nM | IC50 (second compound 1 µM): 1180 nM | IC50 (second compound 3.16 µM): 1020 nM | IC50 (second compound 10 µM): 418 nM | viability, T/C [1]: 95.8% | viability, T/C [2]: 96.9% | viability, T/C [3]: 102% | viability, T/C [4]: 77.2% | viability, T/C [5]: 14.2% | viability, T/C [6]: 19.1% | viability, T/C [7]: 94.4% | viability, T/C [8]: 91.4% | viability, T/C [9]: 98.1% | viability, T/C [10]: 78.8% | viability, T/C [11]: 19.9% | viability, T/C [12]: 9.57% | viability, T/C [13]: 84.9% | viability, T/C [14]: 86.8% | viability, T/C [15]: 71.3% | viability, T/C [16]: 67% | viability, T/C [17]: 15.5% | viability, T/C [18]: 14.1% | viability, T/C [19]: 84.5% | viability, T/C [20]: 72.5% | viability, T/C [21]: 74.5% | viability, T/C [22]: 56.2% | viability, T/C [23]: 11.7% | viability, T/C [24]: 12.7% | viability, T/C [25]: 72.4% | viability, T/C [26]: 72.3% | viability, T/C [27]: 61% | viability, T/C [28]: 51.2% | viability, T/C [29]: 0.28% | viability, T/C [30]: 0.21% | viability, T/C [31]: 63.3% | viability, T/C [32]: 56.9% | viability, T/C [33]: 57.8% | viability, T/C [34]: 25.3% | viability, T/C [35]: 0.24% | viability, T/C [36]: 0.26%

Cc1[nH]c2ccccc2c1CCNCc1ccc(/C=C/C(=O)NO)cc1 + Cc1cnc(CNC(=O)c2c(=O)c3ccc(N4CCCN(C)CC4)nc3n3c2sc2ccccc23)cn1
IC50 (second compound 0.0316 µM): > 316 nM | IC50 (second compound 0.1 µM): > 316 nM | IC50 (second compound 0.316 µM): > 316 nM | IC50 (second compound 1 µM): > 316 nM | IC50 (second compound 3.16 µM): > 316 nM | IC50 (second compound 10 µM): 205 nM | viability, T/C (second compound 0.0316 µM, first compound 0.000999 µM): 101% | viability, T/C (second compound 0.0316 µM, first compound 0.00316 µM): 92.8% | viability, T/C (second compound 0.0316 µM, first compound 0.00999 µM): 99% | viability, T/C [1]: 90.6% | viability, T/C (second compound 0.0316 µM, first compound 0.0999 µM): 81.7% | viability, T/C [3]: 63.7% | viability, T/C (second compound 0.1 µM, first compound 0.000999 µM): 104% | viability, T/C (second compound 0.1 µM, first compound 0.00316 µM): 100% | viability, T/C (second compound 0.1 µM, first compound 0.00999 µM): 87.5% | viability, T/C [7]: 93.9% | viability, T/C (second compound 0.1 µM, first compound 0.0999 µM): 85.9% | viability, T/C [9]: 59.8% | viability, T/C (second compound 0.316 µM, first compound 0.000999 µM): 92.7% | viability, T/C (second compound 0.316 µM, first compound 0.00316 µM): 85.4% | viability, T/C (second compound 0.316 µM, first compound 0.00999 µM): 89.6% | viability, T/C [13]: 76.2% | viability, T/C (second compound 0.316 µM, first compound 0.0999 µM): 80.8% | viability, T/C [15]: 65.2% | viability, T/C (second compound 1 µM, first compound 0.000999 µM): 86.8% | viability, T/C (second compound 1 µM, first compound 0.00316 µM): 79.6% | viability, T/C (second compound 1 µM, first compound 0.00999 µM): 80.4% | viability, T/C [19]: 71.8% | viability, T/C (second compound 1 µM, first compound 0.0999 µM): 83.1% | viability, T/C [21]: 55.7% | viability, T/C (second compound 3.16 µM, first compound 0.000999 µM): 73.4% | viability, T/C (second compound 3.16 µM, first compound 0.00316 µM): 70.1% | viability, T/C (second compound 3.16 µM, first compound 0.00999 µM): 81.4% | viability, T/C [25]: 74.1% | viability, T/C (second compound 3.16 µM, first compound 0.0999 µM): 73.7% | viability, T/C [27]: 53.9% | viability, T/C (second compound 10 µM, first compound 0.000999 µM): 70% | viability, T/C (second compound 10 µM, first compound 0.00316 µM): 68.7% | viability, T/C (second compound 10 µM, first compound 0.00999 µM): 64.2% | viability, T/C [31]: 67% | viability, T/C (second compound 10 µM, first compound 0.0999 µM): 67.5% | viability, T/C [33]: 39.5%

O=C(NO)c1cnc(N2CCN(S(=O)(=O)c3ccc4ccccc4c3)CC2)nc1 + Cc1cnc(CNC(=O)c2c(=O)c3ccc(N4CCCN(C)CC4)nc3n3c2sc2ccccc23)cn1
IC50 (second compound 0.0316 µM): 546 nM | IC50 (second compound 0.1 µM): 447 nM | IC50 (second compound 0.316 µM): 450 nM | IC50 (second compound 1 µM): 353 nM | IC50 (second compound 3.16 µM): 380 nM | IC50 (second compound 10 µM): 263 nM | viability, T/C [1]: 90.2% | viability, T/C [2]: 88.9% | viability, T/C [3]: 68.9% | viability, T/C [4]: 29.1% | viability, T/C [5]: 0.23% | viability, T/C [6]: 0.25% | viability, T/C [7]: 93.5% | viability, T/C [8]: 85.8% | viability, T/C [9]: 67.2% | viability, T/C [10]: 10.9% | viability, T/C [11]: 0.24% | viability, T/C [12]: 0.21% | viability, T/C [13]: 98.1% | viability, T/C [14]: 83.4% | viability, T/C [15]: 66.7% | viability, T/C [16]: 15.7% | viability, T/C [17]: 0.18% | viability, T/C [18]: 0.24% | viability, T/C [19]: 77.9% | viability, T/C [20]: 73.2% | viability, T/C [21]: 53.9% | viability, T/C [22]: 15.3% | viability, T/C [23]: 0.16% | viability, T/C [24]: 0.14% | viability, T/C [25]: 72% | viability, T/C [26]: 64.5% | viability, T/C [27]: 58.1% | viability, T/C [28]: 8.79% | viability, T/C [29]: 0.12% | viability, T/C [30]: 0.18% | viability, T/C [31]: 62.7% | viability, T/C [32]: 62.8% | viability, T/C [33]: 47.6% | viability, T/C [34]: 0.23% | viability, T/C [35]: 0.17% | viability, T/C [36]: 0.18%
